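Step 1: Grow cells in 96-well plates. Step 2: Expose to compound for 48 hours at 5 concentrations. Step 3: Interpolate endpoints linearly; if unreached, use highest concentration. TGI denotes the concentration required for complete inhibition of growth.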 *1 amine or outer side, *2 acyl side, *3 side chain or, on linkers, in order; H or OH if unused. Where a SMILES comes first, the peptide text is derived from it. Bridges are numbered along the chain shown (N, C = ends). Roman numbers before positions name the chains, in order. [ ]: non-standard residue; d: D form. Actinocin(9to1) = Cc1c2oc3c(C)ccc(C(=O)[*:1])c3nc-2c(C(=O)[*:2])c(N)c1=O; NMeV = CN[CH](C(=O)O)C(C)C; Sar = CNCC(=O)O
Legend:
Experiment in all cases: inhibition of tumour cell growth, NCI panel, 48 h
[1] = test system: SK-MEL-28 melanoma
[2] = test system: UACC-257 melanoma
[3] = test system: A549 NSCLC
[4] = test system: IGROV1 ovarian
[5] = test system: SW-620 colon
[6] = test system: SNB-19 CNS
[7] = test system: HL-60(TB) leukemia
[8] = test system: HOP-62 NSCLC
[9] = test system: HS 578T breast
[10] = test system: SK-MEL-5 melanoma
[11] = test system: KM12 colon
[12] = test system: MDA-MB-435
[13] = test system: RXF 393 renal
[14] = test system: HT29 colon
[15] = test system: LOX IMVI melanoma
[16] = test system: RPMI-8226 leukemia
[17] = test system: HCT-15 colon
[18] = test system: U251 CNS
[19] = test system: A498 renal
[20] = test system: NCI-H460 lung
[21] = test system: SK-OV-3 ovarian
[22] = test system: OVCAR-3 ovarian
[23] = test system: CAKI-1 renal
[24] = test system: TK-10 renal
[25] = test system: SK-MEL-2 melanoma
[26] = test system: SNB-75 CNS
[27] = test system: MCF7 breast
[28] = test system: SF-268 CNS
[29] = test system: NCI-H522 lung
[30] = test system: UO-31 renal
[31] = test system: MDA-N
[32] = test system: OVCAR-8 ovarian
[33] = test system: ACHN renal
[34] = test system: K-562 leukemia
[35] = test system: PC-3 prostate
[36] = test system: SN12C renal
[37] = test system: COLO 205 colon
[38] = test system: HCC-2998 colon
[39] = test system: NCI-H226 lung
[40] = test system: OVCAR-4 ovarian
[41] = test system: HCT-116 colon
[42] = test system: OVCAR-5 ovarian
[43] = test system: NCI/ADR-RES ovarian
[44] = test system: MALME-3M melanoma
[45] = test system: UACC-62 melanoma
[46] = test system: DU-145 prostate
[47] = test system: 786-0 renal
[48] = test system: M14 melanoma
[49] = test system: T-47D breast
[50] = test system: NCI-H23 lung
[51] = test system: EKVX NSCLC
[52] = test system: SF-539 CNS
[53] = test system: MDA-MB-231 breast
[54] = test system: SF-295 CNS
[55] = test system: SR leukemia
[56] = test system: BT-549 breast
[57] = test system: HOP-92 NSCLC
[58] = test system: CCRF-CEM leukemia
[59] = test system: MOLT-4 leukemia

Cc1c2oc3c(C)ccc(C(=O)NC4C(=O)NC(Cc5ccc(O)cc5)C(=O)N5CCCC5C(=O)N(C)CC(=O)N(C)C(C(C)C)C(=O)OC4C)c3nc-2c(C(=O)NC2C(=O)NC(Cc3ccc(O)cc3)C(=O)N3CCCC3C(=O)N(C)CC(=O)N(C)C(C(C)C)C(=O)OC2C)c(N)c1=O (stereo not given) (I: TYP[Sar][NMeV] / II: TYP[Sar][NMeV]; ester I:1-I:C, II:1-II:C; linker I:N-II:N via Actinocin(9to1); configuration not given here)
TGI [1]: > 87 µM | TGI [2]: > 100 µM | TGI [3]: > 100 µM | TGI [4]: 32.6 µM | TGI [5]: > 100 µM | TGI [6]: > 56.1 µM | TGI [7]: > 76.2 µM | TGI [8]: > 52.2 µM | TGI [9]: 67.3 µM | TGI [10]: > 86.1 µM | TGI [11]: > 100 µM | TGI [12]: > 100 µM | TGI [13]: > 57.3 µM | TGI [14]: > 100 µM | TGI [15]: 19.9 µM | TGI [16]: > 100 µM | TGI [17]: > 100 µM | TGI [18]: > 48.7 µM | TGI [19]: 56.1 µM | TGI [20]: > 100 µM | TGI [21]: > 100 µM | TGI [22]: > 48.1 µM | TGI [23]: 27.5 µM | TGI [24]: > 80.3 µM | TGI [25]: > 43.6 µM | TGI [26]: 20.3 µM | TGI [27]: 14.6 µM | TGI [28]: > 100 µM | TGI [29]: 45.8 µM | TGI [30]: > 61.4 µM | TGI [31]: > 100 µM | TGI [32]: > 100 µM | TGI [33]: > 100 µM | TGI [34]: > 100 µM | TGI [35]: > 100 µM | TGI [36]: > 100 µM | TGI [37]: > 100 µM | TGI [38]: > 100 µM | TGI [39]: > 100 µM | TGI [40]: > 42.1 µM | TGI [41]: > 100 µM | TGI [42]: > 43.8 µM | TGI [43]: > 100 µM | TGI [44]: 44.3 µM | TGI [45]: > 67 µM | TGI [46]: > 72.7 µM | TGI [47]: > 74.9 µM | TGI [48]: 28.9 µM | TGI [49]: > 79.9 µM | TGI [50]: > 79.2 µM | TGI [51]: > 100 µM | TGI [52]: > 100 µM | TGI [53]: > 66.9 µM | TGI [54]: > 54.6 µM

Cn1cnc(/C=C/C#N)c1
TGI [55]: > 100 µM | TGI [56]: > 100 µM | TGI [1]: > 100 µM | TGI [2]: > 100 µM | TGI [3]: > 100 µM | TGI [4]: > 100 µM | TGI [5]: > 100 µM | TGI [6]: > 100 µM | TGI [8]: > 100 µM | TGI [10]: > 100 µM | TGI [11]: > 100 µM | TGI [12]: > 100 µM | TGI [13]: > 100 µM | TGI [14]: > 100 µM | TGI [57]: > 100 µM | TGI [17]: > 100 µM | TGI [18]: > 100 µM | TGI [19]: > 100 µM | TGI [20]: > 100 µM | TGI [21]: > 100 µM | TGI [22]: > 100 µM | TGI [23]: > 100 µM | TGI [24]: > 100 µM | TGI [25]: > 100 µM | TGI [26]: > 100 µM | TGI [27]: > 100 µM | TGI [28]: > 100 µM | TGI [29]: > 100 µM | TGI [30]: > 100 µM | TGI [31]: > 100 µM | TGI [32]: > 100 µM | TGI [33]: > 100 µM | TGI [34]: > 100 µM | TGI [35]: > 100 µM | TGI [36]: > 100 µM | TGI [37]: > 100 µM | TGI [38]: > 100 µM | TGI [39]: > 100 µM | TGI [40]: > 100 µM | TGI [42]: > 100 µM | TGI [43]: > 100 µM | TGI [44]: > 100 µM | TGI [45]: > 100 µM | TGI [58]: > 100 µM | TGI [48]: > 100 µM | TGI [50]: > 100 µM | TGI [51]: > 100 µM | TGI [52]: > 100 µM | TGI [53]: > 100 µM | TGI [59]: > 100 µM | TGI [54]: > 100 µM
